According to US20250388582A1, “NOVEL BICYCLIC HETEROARYL COMPOUND AND USE THEREOF” (ILDONG PHARMACEUTICAL CO., LTD., priority 2022, published 2025):

Assays:
PIKFYVE = molecular target: T1, PIKFYVE (Homo sapiens, UniProt Q9Y2I7); test: NanoBRET TE Intracellular Kinase Assay, interaction of PIKFYVE and compounds in HEK293 cells; format: cell-based; conditions: IC50 class from BRET; HEK293 cells expressing PIKFYVE-NanoLuc; 2 hours incubation
T1 construct: host or cells: HEK293 (ATCC, CRL-1573)
How it was run: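 HEK293 cells transiently expressing a PIKFYVE-NanoLuc fusion were incubated 2 h at 37 °C, 5% CO2 with compound plus NanoBRET tracer. BRET was read after adding Nano-Glo substrate, giving intracellular target engagement by tracer displacement.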

human GST-PIKFYVE = molecular target: T2, human GST-PIKFYVE (Homo sapiens, UniProt Q9Y2I7); test: ADP-Glo kinase assay, enzyme inhibition activity against human PIKFYVE (Carna biosciences); format: biochemical; conditions: inhibitory activity at final compound concentration 10 nM; 1 hour at room temperature
T2 construct: GST; purchased Carna biosciences 11-118
T2 sequence (Q9Y2I7 whole entry): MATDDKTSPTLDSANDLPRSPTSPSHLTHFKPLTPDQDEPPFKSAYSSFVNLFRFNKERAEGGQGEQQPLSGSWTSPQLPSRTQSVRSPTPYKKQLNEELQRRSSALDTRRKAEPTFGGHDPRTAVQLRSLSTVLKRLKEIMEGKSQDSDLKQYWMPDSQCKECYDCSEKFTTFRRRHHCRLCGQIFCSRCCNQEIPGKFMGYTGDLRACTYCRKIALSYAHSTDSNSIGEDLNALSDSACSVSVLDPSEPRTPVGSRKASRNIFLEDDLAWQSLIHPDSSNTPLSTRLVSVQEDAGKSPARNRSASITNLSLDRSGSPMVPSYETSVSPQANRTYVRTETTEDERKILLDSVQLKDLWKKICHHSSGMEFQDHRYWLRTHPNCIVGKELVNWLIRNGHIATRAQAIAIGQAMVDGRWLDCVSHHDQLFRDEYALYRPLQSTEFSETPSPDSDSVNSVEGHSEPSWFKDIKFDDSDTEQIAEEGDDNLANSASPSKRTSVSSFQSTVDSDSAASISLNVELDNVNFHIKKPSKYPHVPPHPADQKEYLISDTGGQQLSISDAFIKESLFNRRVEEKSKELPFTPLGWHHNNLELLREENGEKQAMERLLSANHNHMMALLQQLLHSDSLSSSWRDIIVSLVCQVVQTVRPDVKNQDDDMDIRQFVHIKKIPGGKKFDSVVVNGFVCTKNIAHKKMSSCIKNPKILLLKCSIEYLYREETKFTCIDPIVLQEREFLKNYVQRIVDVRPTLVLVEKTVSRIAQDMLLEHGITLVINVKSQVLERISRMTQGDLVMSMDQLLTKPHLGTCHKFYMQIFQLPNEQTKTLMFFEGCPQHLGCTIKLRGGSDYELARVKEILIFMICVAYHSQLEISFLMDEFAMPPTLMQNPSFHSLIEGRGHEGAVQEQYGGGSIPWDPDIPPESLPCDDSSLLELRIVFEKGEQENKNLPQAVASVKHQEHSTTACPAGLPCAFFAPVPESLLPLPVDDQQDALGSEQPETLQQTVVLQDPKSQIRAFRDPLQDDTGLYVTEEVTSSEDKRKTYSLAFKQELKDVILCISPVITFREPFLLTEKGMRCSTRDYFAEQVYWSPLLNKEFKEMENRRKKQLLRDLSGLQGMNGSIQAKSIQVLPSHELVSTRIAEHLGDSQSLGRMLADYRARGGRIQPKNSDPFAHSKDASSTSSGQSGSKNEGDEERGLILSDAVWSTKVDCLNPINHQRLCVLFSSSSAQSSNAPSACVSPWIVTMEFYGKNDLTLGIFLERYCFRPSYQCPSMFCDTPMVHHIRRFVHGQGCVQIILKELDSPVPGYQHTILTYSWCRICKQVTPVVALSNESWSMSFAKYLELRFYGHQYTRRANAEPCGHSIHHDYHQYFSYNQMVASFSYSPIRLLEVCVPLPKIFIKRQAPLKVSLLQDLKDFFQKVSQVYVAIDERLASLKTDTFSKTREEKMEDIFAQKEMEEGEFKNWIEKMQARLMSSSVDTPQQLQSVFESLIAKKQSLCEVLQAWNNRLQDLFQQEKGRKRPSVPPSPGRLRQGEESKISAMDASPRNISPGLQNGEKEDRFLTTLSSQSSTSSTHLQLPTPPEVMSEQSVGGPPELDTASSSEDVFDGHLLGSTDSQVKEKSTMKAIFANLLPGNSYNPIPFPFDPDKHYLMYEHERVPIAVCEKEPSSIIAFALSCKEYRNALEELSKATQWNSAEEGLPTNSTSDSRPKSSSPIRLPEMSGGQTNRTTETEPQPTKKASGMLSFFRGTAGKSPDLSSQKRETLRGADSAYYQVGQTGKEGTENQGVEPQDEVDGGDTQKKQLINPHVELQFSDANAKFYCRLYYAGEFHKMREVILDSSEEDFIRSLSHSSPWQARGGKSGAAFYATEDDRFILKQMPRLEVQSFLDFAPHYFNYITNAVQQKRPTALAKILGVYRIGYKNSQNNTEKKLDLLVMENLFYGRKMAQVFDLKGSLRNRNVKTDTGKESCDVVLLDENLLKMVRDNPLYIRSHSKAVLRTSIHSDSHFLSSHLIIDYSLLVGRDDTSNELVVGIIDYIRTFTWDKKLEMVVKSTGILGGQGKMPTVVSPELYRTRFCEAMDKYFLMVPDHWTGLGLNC
How it was run: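 Human GST-PIKFYVE (glutathione Sepharose-purified) was reacted with substrate and ATP for 1 h at room temperature in 50 mM MOPS, 1 mM DTT, pH 7.2, with compound at 10 nM final. ADP formed was read by ADP-Glo luminescence; inhibition was calculated against no-enzyme (100%) and no-compound (0%) controls.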

[1] = Microsomal metabolic stability assay; format: in vitro ADME, human or CD1 male mouse; conditions: Clint class; 1 μM compound, 0.5 mg/ml microsomes, NADPH, UDPGA, Alamethicin; species not given
Protocol: The microsomal metabolic stability assay was performed using pooled human or CD1 male mouse interspecies microsomes. Supplemental cofactors (NADPH, UDPGA) and microsomal membrane pore-forming factor (Alamethicin) were added to promote cytochrome P450 (CYP), UGT reactivity to the target compound. Test compounds (1 μM incubation concentration) and microsomes (0.5 mg/ml incubation concentration) were diluted in 0.1 M phosphate buffer, pH 7.4, and incubated (37° C.). The reaction was initiated by the addition of NADPH (1 mM), UDPGA (1 mM) and Alamethicin (25 μg/mg). The incubation times were 0, 5, 15, 30, and 45 minutes, and at each time point, the reaction was terminated by adding acetonitrile containing internal standard (IS)(1:3 ratio). The plate was then sealed, centrifuged (3000 rpm, 20 min, 4° C.), and the supernatant was analyzed by LC-MS/MS. Hepatic extraction ratio values were calculated from the measured in vitro clearance and Intrinsic clearance (Clint) values were calculated from the assay results, and the respective Clint values were categorized into Low, Medium, and High categories based on the reference document (ref. Prostaglandins & other lipid mediators 136 (2018): 90-95).

T1 sequence (Q9Y2I7 whole entry): as above

Compound	IC50 (PIKFYVE) [nM]	ADP-Glo kinase assay (%, 10 nM) (human GST-PIKFYVE) [%]	Microsomal metabolic stability [1]
C(=N\Nc1nc(N2CCOCC2)nc2c1ncn2-c1ccccc1)/c1c[nH]c2ccccc12 [Example 132, (E)-4-(6-(2-((1H-indol-3-yl)methylene)hydrazinyl)-9-phenyl-9H-purin-2-yl)morpholine]	≤ 10	86.76	Medium (Medium 8.8~48,)
Cc1ccc(C(=O)Cn2cnc3c(N/N=C/c4cccc(C)c4)nc(N4CCOCC4)nc32)cc1 [Example 42, (E)-2-(6-(2-(3-methylbenzylidene)hydrazinyl)-2-morpholino-9H-purin-9-yl)-1-(p-tolyl)ethan-1-one]	≤ 10	81.60	Low (Low <8.8,)
Cc1cccc(/C=N/Nc2nc(N3CCOCC3)nc3c2ncn3-c2ccc(F)cn2)c1 [Example 149, (E)-4-(9-(5-fluoropyridin-2-yl)-6-(2-(3-methylbenzylidene)hydrazinyl)-9H-purin-2-yl)morpholine]	≤ 10	83.75	Medium (Medium 8.8~48,)
Cc1cccc(/C=N/Nc2nc(N3CCOCC3)nc3c2ncn3-c2ccnc(C)c2)c1 [Example 140, (E)-4-(6-(2-(3-methylbenzylidene)hydrazinyl)-9-(2-methylpyridin-4-yl)-9H-purin-2-yl)morpholine]	≤ 10	92.50	Medium (Medium 8.8~48,)
Cc1cccc(/C=N/Nc2nc(N3CCOCC3)nc3c2ncn3-c2cccc(C)c2)c1 [Example 127, (E)-4-(6-(2-(3-methylbenzylidene)hydrazinyl)-9-(m-tolyl)-9H-purin-2-yl)morpholine]	≤ 10	84.12	Low (Low <8.8,)
Cc1cccc(/C=N/Nc2nc(N3CCOCC3)nc3c2ncn3-c2cccc(Cl)c2)c1 [Example 122, (E)-4-(9-(3-chlorophenyl)-6-(2-(3-methylbenzylidene)hydrazinyl)-9H-purin-2-yl)morpholine]	≤ 10	87.32	Medium (Medium 8.8~48,)
Cc1cccc(/C=N/Nc2nc(N3CCOCC3)nc3c2ncn3-c2cccc(C)n2)c1 [Example 141, (E)-4-(6-(2-(3-methylbenzylidene)hydrazinyl)-9-(6-methylpyridin-2-yl)-9H-purin-2-yl)morpholine]	≤ 10	88.29	medium
COc1cc(-n2cnc3c(N/N=C/c4cccc(C)c4)nc(N4CCOCC4)nc32)ccn1 [Example 101, (E)-4-(9-(2-methoxypyridin-4-yl)-6-(2-(3-methylbenzylidene)hydrazinyl)-9H-purin-2-yl)morpholine]	≤ 10	91.20	Low (Low <8.8,)
Cc1cccc(/C=N/Nc2nc(N3CCOCC3)nc3c(-c4ccncc4)cccc23)c1 [Example 212, (E)-4-(4-(2-(3-methylbenzylidene)hydrazinyl)-8-(pyridin-4-yl)quinazolin-2-yl)morpholine]	≤ 10	88.34	Low (Low <8.8,)
Cc1cccc(/C=N/Nc2nc(N3CCOCC3)nc3c2ncn3-c2ccnc(C(F)(F)F)c2)c1 [Example 139, (E)-4-(6-(2-(3-methylbenzylidene)hydrazinyl)-9-(2-(trifluoromethyl)pyridin-4-yl)-9H-purin-2-yl)morpholine]	≤ 10	84.50	low
Cc1cccc(/C=N/Nc2nc(N3CCOCC3)nc3c2ncn3-c2cccnc2C)c1 [Example 109, (E)-4-(6-(2-(3-methylbenzylidene)hydrazinyl)-9-(2-methylpyridin-3-yl)-9H-purin-2-yl)morpholine]	10 to 20	79.21	Medium (Medium 8.8~48,)
Cc1cccc(/C=N/Nc2nc(N3CCOCC3)nc3c2ncn3CC(=O)c2ccccn2)c1 [Example 23, (E)-2-(6-(2-(3-methylbenzylidene)hydrazinyl)-2-morpholino-9H-purin-9-yl)-1-(pyridin-2-yl)ethan-1-one]	≤ 10	90.82	Medium (Medium 8.8~48,)

Other lines, results leading:

IC50 (PIKFYVE) [nM]	ADP-Glo kinase assay (%, 10 nM) (human GST-PIKFYVE) [%]	Microsomal metabolic stability [1]	Compound
≤ 10	90.25	Low (Low <8.8,)	Cc1cccc(/C=N/Nc2nc(N3CCOCC3)nc3c2ncn3CC(=O)c2ccccc2Cl)c1 [Example 48, (E)-1-(2-chlorophenyl)-2-(6-(2-(3-methylbenzylidene)hydrazinyl)-2-morpholino-9H-purin-9-yl)ethan-1-one]
≤ 10	94.99	medium	Cc1cccc(/C=N/Nc2nc(N3CCOCC3)nc3c(-c4cnn(C)c4)cccc23)c1 [Example 209, (E)-4-(8-(1-methyl-1H-pyrazol-4-yl)-4-(2-(3-methylbenzylidene)hydrazinyl)quinazolin-2-yl)morpholine]
≤ 10	82.48	Medium (Medium 8.8~48,)	Cc1cccc(-c2ccn(-c3nc(N4CCOCC4)nc4c3ncn4CC(=O)c3ccccn3)n2)c1 [Example 64, 2-(2-morpholino-6-(3-(m-tolyl)-1H-pyrazol-1-yl)-9H-purin-9-yl)-1-(pyridin-2-yl)ethan-1-one]
≤ 10	92.33	Medium (Medium 8.8~48,)	COc1cccc(-n2cnc3c(N/N=C/c4cccc(C)c4)nc(N4CCOCC4)nc32)c1 [Example 121, (E)-4-(9-(3-methoxyphenyl)-6-(2-(3-methylbenzylidene)hydrazinyl)-9H-purin-2-yl)morpholine]
≤ 10	87.21	Low (Low <8.8,)	Cc1cccc(/C=N/Nc2nc(N3CCOCC3)nc3c2ncn3-c2cccc(C#N)c2)c1 [Example 126, (E)-3-(6-(2-(3-methylbenzylidene)hydrazinyl)-2-morpholino-9H-purin-9-yl)benzonitrile]
≤ 10	88.80	Medium (Medium 8.8~48,)	Cc1cccc(/C=N/Nc2nc(N3CCOCC3)nc3c2ncn3-c2cc(C)n(C)n2)c1 [Example 147, (E)-4-(9-(1,5-dimethyl-1H-pyrazol-3-yl)-6-(2-(3-methylbenzylidene)hydrazinyl)-9H-purin-2-yl)morpholine]
≤ 10	78.65	Medium (Medium 8.8~48,)	Cc1cccc(-c2ccn(-c3nc(N4CCOCC4)nc4c3ncn4-c3ccccc3)n2)c1 [Example 136, 4-(9-phenyl-6-(3-(m-tolyl)-1H-pyrazol-1-yl)-9H-purin-2-yl)morpholine]
≤ 10	90.77	medium	Cc1cccc(/C=N/n2cnc3c(Nc4ccncc4)nc(N4CCOCC4)nc32)c1 [Example 166, (E)-9-((3-methylbenzylidene)amino)-2-morpholino-N-(pyridin-4-yl)-9H-purin-6-amine]
